Read-outs that look alike come from different tables or passages of the source. Where a SMILES comes first, the peptide text is derived from it. Bridges are numbered along the chain shown (N, C = ends).
Legend:
[1] = biological target: T1, Kv4.2 (Rattus norvegicus, UniProt Q63881); test: whole-cell patch-clamp, Kv4.2 in HEK293t cells, concentration-response and time course; format: cell-based
T1 construct: expressed in transfected cells; host or cells: HEK293t
T1 sequence (Q63881 1-630): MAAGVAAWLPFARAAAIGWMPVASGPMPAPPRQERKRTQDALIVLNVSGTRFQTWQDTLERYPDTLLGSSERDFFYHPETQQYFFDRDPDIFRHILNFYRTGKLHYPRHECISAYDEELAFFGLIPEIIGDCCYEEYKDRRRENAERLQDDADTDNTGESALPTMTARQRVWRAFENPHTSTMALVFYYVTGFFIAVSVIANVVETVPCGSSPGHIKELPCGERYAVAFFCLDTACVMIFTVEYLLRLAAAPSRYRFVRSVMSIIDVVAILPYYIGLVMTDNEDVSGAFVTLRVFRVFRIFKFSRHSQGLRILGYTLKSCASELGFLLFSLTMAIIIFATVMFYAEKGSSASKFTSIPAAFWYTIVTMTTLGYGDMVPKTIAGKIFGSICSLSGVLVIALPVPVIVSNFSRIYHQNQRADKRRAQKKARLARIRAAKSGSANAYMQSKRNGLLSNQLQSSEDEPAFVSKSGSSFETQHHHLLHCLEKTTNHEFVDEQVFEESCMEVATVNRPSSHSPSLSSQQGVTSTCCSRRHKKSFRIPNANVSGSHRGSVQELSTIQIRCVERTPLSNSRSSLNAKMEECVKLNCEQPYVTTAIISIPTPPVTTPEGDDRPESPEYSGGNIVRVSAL
Excerpt: (§1) Rat cDNA genes encoding Kv4.2 (Accession: NM_031730.2) and Kv4.3 (Accession: AB003587.1) were subcloned to vector pcDNA3.1. In addition, human cDNA genes encoding Nav1.7 (Accession: DQ857292.1) and Nav1.5 (Accession: AB158469.2) were subcloned to vectors pcDNA3.1-mod and pcDNA3.1, separately. Then, Kv4.2, Kv4.3, Nav1.5 and Nav1.7 constructs were transiently transfected into the human embryonic kidney 293t (HEK293t) cells using lipofectamine 2000 (Invitrogen, USA) in accordance with manufacturer protocols. Thereafter, HEK293 cells were inoculated within Dulbecco’s modified Eagle’s medium (DMEM) containing 10% fetal bovine serum (FBS) at 5% CO2 and 37°C. The Kv4.3 channel and the Kv4.2 counterpart were then transfected in the absence of β subunit. Subsequently, cells were incubated with a DNA-lipofectamine mixture (one reporter plasmid for green fluorescence protein and channel constructs) for 4-6 h, and were washed with the fresh medium.
An EPC-10 patch-clamp amplifier (HEKA, Germany) was employed to record the potassium currents at the configuration of whole-cell patch-clamp under an ambient temperature of 22-25°C. The resistance was 2.0-3.0 MΩ when the recording pipette contained a full volume of internal solution (supplemented with 140 mM KCl, 10 mM HEPES, 2.5 mM MgCl2, 5 mM ATP and 11 mM EGTA). KOH was utilized to adjust the pH to 7.2, while sucrose was employed to adjust the osmolarity to 310 mOsm/L. The culture medium was replaced with an external solution containing 150 mM NaCl, 2.5 mM CaCl2, 10 mM HEPES, 2 mM MgCl2, 5 mM KCl, and 10 mM D-glucose. Similarly, sucrose and NaOH were applied to adjust the osmolarity to 330 mOsm/L and pH to 7.4. […] The series resistance was maintained at about 5 MΩ, with 65-70% compensation. Finally, the leakage currents and linear capacitance were subtracted digitally according to the P/4 protocol. […]
On-rates were determined by fitting time course data with a single exponential decay function (2): y = Ae^-kx + C, where x is the time, A is the normalized current value before the application of toxin (usually 1.0), and C is the final normalized current value following the block by the toxin. The on-rate (τon) was determined from the inverse of the rate constant k.
Off-rates were determined by fitting time course data with a double exponential association function (3): y = A(1-e^-kx) + B(1-e^-fx) + C, where x is the time, A or B is the normalized current value after washout of the toxin (usually 1.0 if complete washout occurred), and C is the normalized current value before the washout of the toxin. The off-rate (τoff) was determined from the inverse of the rate constant k or f.

[2] = biological target: T1, Kv4.2; test: triple-pulse protocol, toxin dissociation by strong depolarization, Kv4.2 in HEK 293T cells; format: cell-based; details: 500 nM; for inhibition at 0.5 µM: HEK-293T
Excerpt: as §1
An EPC-10 patch-clamp amplifier (HEKA, Germany) was employed to record the potassium currents at the configuration of whole-cell patch-clamp under an ambient temperature of 22-25°C. The resistance was 2.0-3.0 MΩ when the recording pipette contained a full volume of internal solution (supplemented with 140 mM KCl, 10 mM HEPES, 2.5 mM MgCl2, 5 mM ATP and 11 mM EGTA). KOH was utilized to adjust the pH to 7.2, while sucrose was employed to adjust the osmolarity to 310 mOsm/L. The culture medium was replaced with an external solution containing 150 mM NaCl, 2.5 mM CaCl2, 10 mM HEPES, 2 mM MgCl2, 5 mM KCl, and 10 mM D-glucose. Similarly, sucrose and NaOH were applied to adjust the osmolarity to 330 mOsm/L and pH to 7.4. […] The series resistance was maintained at about 5 MΩ, with 65-70% compensation. Finally, the leakage currents and linear capacitance were subtracted digitally according to the P/4 protocol.
Subsequently, we examined whether strong depolarization induced toxin dissociation from potassium channels. To address this question, the triple-pulse protocol was utilized, which used the test pulse of +20 mV after potent depolarization (+130 mV) to measure the available Kv4.2 currents (Fig. 6, inset). […] Furthermore, this toxin also affected the amplitude of outward Kv4.2 currents (46.3 ± 5.6%) by the second pulse (+130 mV). Typically, the amplitude of current acquired was nearly the same as that in controls induced by a third pulse (+20 mV), since the inhibition was only 17.5 ± 3.9% (Fig. 6, n = 7).
Figure 6. Potent depolarization dissociated the toxin-channel complex. The 300 ms test pulse at the voltage of +20 mV was utilized to induce the current traces. Prior to the application of test pulse, cells held at the voltage of -80 mV depolarized for 500 ms at the conditioning pulse of +130 mV and the holding potential of 50 ms (see inset). Following 500 nM JZTX-X perfusion, the test pulse-elicited current amplitude was nearly identical to the control after the 500 ms conditioning pulse.

In the case of `CC(C)C[C@@H]1NC(=O)[C@H](CCCCN)NC(=O)[C@H](Cc2ccc(O)cc2)NC(=O)[C@@H]2CSSC[C@@H]3NC(=O)[C@H](Cc4ccc(O)cc4)NC(=O)[C@H](Cc4ccccc4)NC(=O)CNC(=O)[C@H](C)NC(=O)[C@H](CSSC[C@H](NC(=O)[C@@H](N)CC(C)C)C(=O)N[C@@H](CO)C(=O)N[C@@H](CCCNC(=N)N)C(=O)N[C@@H](CCC(=O)O)C(=O)NCC(=O)N[C@@H](CCC(=O)O)C(=O)N[C@@H](Cc4ccccc4)C(=O)N2)NC(=O)[C@H](CSSC[C@@H](C(=O)N[C@@H](Cc2ccc(O)cc2)C(=O)N[C@@H](CCCNC(=N)N)C(=O)N[C@@H](CC(N)=O)C(=O)O)NC(=O)[C@H](Cc2c[nH]cn2)NC(=O)[C@H](CC(C)C)NC(=O)[C@H](C(C)C)NC(=O)[C@H](Cc2ccccc2)NC(=O)[C@H](C)NC(=O)[C@H](CCCCN)NC3=O)NC(=O)[C@H](CCCCN)NC(=O)[C@H](CCCNC(=N)N)NC1=O` [JZTX-X, Jingzhaotoxin-X] (H-LCSREGEFCYKLRKCCAGFYCKAFVLHCYRN-OH; disulfide 2-16, 9-21, 15-28; N-terminus assumed), the “inhibition of Kv4.2 at resting potential without pulses” value ([1]; -80 mV, no pulse during first ~100 s of treatment with 200 nM or 500 nM (order Kv4.2, Kv4.3), same as with pulses at 5 s intervals, n = 5) is reported as “approximately 95%”, the IC50 ([1]; HEK293t cells, 1 nM-10 μM, 300-ms step to +20 mV from -80 mV, 22-25°C, pH 7.4, Hill equation fit, n = 7, read-out: IC50 for Kv4.2 channels) is reported as 68 nM and the “Hill Coefficient, Kv4.2” value ([1]; HEK293t cells, +20 mV from -80 mV, n = 7) is reported as 0.91. For the same molecule, the “reversal of Kv4.2 inhibition after rinsing” value ([1]; in 3 min following rinsing, high JZTX-X dose, HEK293t cells, n = 6) was over 95%, the “inhibition of Kv4.2 outward current, second pulse (+130 mV)” value ([2]; 500 ms conditioning pulse, n = 7, 0.5 µM) was ~ 46% and the “inhibition of Kv4.2 current, first pulse (+20 mV)” value ([2]; holding -80 mV, n = 7, 0.5 µM) was ~ 93%. For the same molecule, the inhibition at 0.5 µM ([2]; 500 ms conditioning pulse, n = 7, read-out: inhibition of Kv4.2 outward current, second pulse (+130 mV)) was 46.3 ± 5.6%, the inhibition at 0.5 µM ([2]; after +130 mV conditioning pulse, n = 7, read-out: inhibition of Kv4.2 current, third pulse (+20 mV)) was 17.5 ± 3.9% and the inhibition at 0.5 µM ([2]; holding -80 mV, n = 7, read-out: inhibition of Kv4.2 current, first pulse (+20 mV)) was 92.6 ± 3.2%.
